Source: PubChem BioAssay (NCI)
Several values for one entry are separate records, joined by “and”; a condition that tells them apart may be missing. Equal values may be shown once.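 96-well plates; 48 h exposure; 5 concentrations. Endpoints by linear interpolation between flanking doses. Not reached: highest tested concentration assigned. GI50 = concentration required for 50% inhibition of growth. The concentration for full growth arrest is given as TGI.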

Tests used:
Assay in all cases: DTP human tumour cell line panel, 48 h
ACHN renal = system: ACHN renal
DU-145 prostate = system: DU-145 prostate
IGROV1 ovarian = system: IGROV1 ovarian
M14 melanoma = system: M14 melanoma
NCI-H226 lung = system: NCI-H226 lung
NCI-H522 lung = system: NCI-H522 lung
OVCAR-3 ovarian = system: OVCAR-3 ovarian
SK-MEL-2 melanoma = system: SK-MEL-2 melanoma
SK-MEL-28 melanoma = system: SK-MEL-28 melanoma
SK-OV-3 ovarian = system: SK-OV-3 ovarian

Structure (SMILES)	GI50 (ACHN renal)	TGI (ACHN renal) [µM]	GI50 (DU-145 prostate)	TGI (DU-145 prostate) [µM]	GI50 (IGROV1 ovarian)	TGI (IGROV1 ovarian) [µM]	GI50 (M14 melanoma) [µM]	TGI (M14 melanoma) [µM]	GI50 (NCI-H226 lung) [µM]	TGI (NCI-H226 lung) [µM]	GI50 (NCI-H522 lung)	TGI (NCI-H522 lung)	GI50 (OVCAR-3 ovarian)	TGI (OVCAR-3 ovarian)	GI50 (SK-MEL-2 melanoma)	TGI (SK-MEL-2 melanoma)	GI50 (SK-MEL-28 melanoma) [µM]	TGI (SK-MEL-28 melanoma) [µM]	GI50 (SK-OV-3 ovarian)	TGI (SK-OV-3 ovarian)
C=C1C(=O)O[C@H]2[C@H]1CC/C(COC(=O)/C=C\C(=O)NCc1ccc(Cn3c(=O)sn(CCI)c3=O)cc1)=C\CC[C@@]1(C)O[C@@H]21	1.93 µM	3.74	3.61 µM	13.2	3.17 µM	11.9	6.25	19.7	20.9	49	1.48 µM	2.93 µM	1.76 µM	3.24 µM	11.1 µM	23.4 µM	2.23	5.04	17.4 µM	31.2 µM
O=C1NC2(CCCCC2)C(=O)N1CCN(CCCl)CCCl	–	25	–	> 25	17.7 µM	–	–	> 25	> 25	> 250	> 25 µM	> 25 µM and 163 µM	> 244 µM	> 250 µM	13.3 µM	25 µM and > 141 µM	> 25	> 114	> 25 µM	> 25 µM and 250 µM
Cc1ccc(-c2nc(-c3nccc4ccccc34)oc2-c2ccccc2)cc1	–	> 100	–	> 100	–	> 100	–	> 100	–	> 100	–	> 100 µM	–	> 100 µM	–	> 100 µM	–	> 100	–	> 100 µM
C#C[C@@]1(O)[C@@H](CO)O[C@@H](n2cc(C(F)(F)F)c3c(N)ncnc32)[C@@H]1O	0.831 µM	> 100	0.433 µM	> 100	0.103 µM	> 100	0.724	3.56	2.7	> 100	0.345 µM	1.98 µM	0.727 µM	4.89 µM	0.913 µM	2.85 µM	1.83	10	0.214 µM	> 100 µM
CC[C@H](C)[C@H](NC(=O)[C@H]1CCCCN1C)C(=O)N(C)[C@H](C[C@@H](OC(C)=O)c1cccc(C(=O)N[C@@H](Cc2ccccc2)C[C@H](C)C(=O)O)n1)C(C)C	0.00787 µM and 0.0025 µM	> 25	0.00286 µM and 0.0025 µM	> 25	0.0038 µM and 0.0025 µM	> 25	< 0.0025	< 0.0025	–	> 25	0.0005 µM and < 0.0025 µM	< 0.0025 µM	0.000389 µM and < 0.0025 µM	0.0165 µM and < 0.0025 µM	0.000774 µM and 0.0025 µM	> 25 µM	–	> 25	0.00348 µM and 0.0025 µM	> 25 µM
COS(C)(=O)=O	–	> 2	–	> 2	–	> 2	–	> 2	–	> 2	–	> 2 µM	–	> 2 µM	–	> 2 µM	–	> 2	–	> 2 µM
Cc1ccc(Cl)c(NS(=O)(=O)c2ccc(-c3cnc(C4CC4)o3)cc2)c1	0.205 µM	> 72.7	0.288 µM	> 100	0.129 µM	> 100	0.0698	> 42.6	1.03	28.1	0.0566 µM	20.3 µM	0.0674 µM	4.17 µM	0.412 µM	50 µM	2.77	> 58.5	3.31 µM	68.8 µM
CC(=O)/C(Br)=C/c1ccc(Br)o1	9.5 µM	22.2	6.19 µM	18.3	10.2 µM	29.2	4.71	13.7	12.7	26.2	2.78 µM	8.14 µM	4.16 µM	14.5 µM	8.59 µM	23.9 µM	2.87	9.18	26.8 µM	> 65.8 µM
COc1ccc(C(=O)c2cc3c(N)c(C(=O)Nc4cccc(Br)c4C)sc3nc2C)cc1	0.0693 µM	> 100	0.194 µM	–	0.0869 µM	> 100	0.0267	> 100	0.173	> 100	0.0418 µM	> 100 µM	0.0394 µM	1.05 µM	1.54 µM	> 100 µM	> 100	> 100	0.102 µM	> 100 µM
O=C(Nc1ccccc1)OC1OC(COC(=O)c2ccccc2)C(OC(=O)c2ccccc2)C1OS(=O)(=O)c1ccc([N+](=O)[O-])cc1 (stereo not drawn)	–	> 100	–	> 100	–	> 100	–	> 100	–	> 100	–	> 100 µM	–	> 100 µM	–	> 100 µM	–	> 100	–	> 100 µM
Clc1cccc(CNc2c3ccccc3nc3ccccc23)c1	1.59 µM	3.66	2.57 µM	7.17	1.91 µM	5.46	1.53	3.02	2.22	6.24	1.88 µM	4.89 µM	2.1 µM	4.56 µM	2 µM	4.22 µM	1.7	3.25	3.12 µM	13.2 µM
COc1cc(-c2nc3ccccc3o2)cc(CN2CCCCC2)c1O	8.96 µM	83.8	1.82 µM	3.33	14 µM	> 100	1.48	3.26	1.85	4.32	3.26 µM	14.2 µM	2.75 µM	39.7 µM	4.58 µM	15.8 µM	1.97	4.12	30.2 µM	> 74.1 µM
O=C(NCCOCCOCCOCCNC(=O)c1cc2c(o1)C(=O)c1ccccc1C2=O)NC12CC3CC(CC(C3)C1)C2	1.75 µM	4.21	0.628 µM	1.89	2.11 µM	8.53	0.462	1.8	1.56	3.66	1.78 µM	4.95 µM	1.41 µM	4.4 µM	2.15 µM	5.46 µM	1.94	3.75	2.84 µM	7.43 µM
COc1ccc(-c2cc(-c3ccc(Cl)cc3)nc(NCCCCNc3ccnc4cc(Cl)ccc34)n2)cc1	12.6 µM	25.6	2.25 µM	4.79	1.46 µM	3.12	2.34	6.3	31.8	> 100	3.65 µM	14.6 µM	1.65 µM	3.11 µM	20.3 µM	52.8 µM	1.76	3.32	13 µM	27.3 µM
CCN1C(=O)N(CC)C2C1NN=c1s/c(=C3\C(=O)N(C4CCCC4)c4ccccc43)c(=O)n12 (stereo not drawn)	1.27 µM	> 100	2.25 µM	6.59	0.773 µM	> 100	0.913	6.73	1.47	5.54	0.573 µM	5.57 µM	0.516 µM	2.09 µM	2.76 µM	17.6 µM	1.18	> 100	2.45 µM	27.8 µM
c1ccc(Oc2ccc(Nc3ncc(-c4ccccc4)o3)cc2)cc1	> 25 µM	> 25	> 25 µM	> 25	> 25 µM	> 25	> 25	> 25	> 25	> 25	> 25 µM	> 25 µM	> 25 µM	> 25 µM	> 25 µM	> 25 µM	> 25	> 25	> 25 µM	> 25 µM
COc1ccccc1[As]=[As]c1ccccc1OC (stereo not drawn)	0.0613 µM	0.186	0.0542 µM	0.173	0.0414 µM	0.209	0.0407	0.147	0.0723	0.21	0.0165 µM	0.0376 µM	0.0234 µM	0.0531 µM	0.157 µM	0.3 µM	0.0437	0.153	0.158 µM	0.293 µM
CCC(=O)N1C/C(=C/c2ccc(Br)cc2)C(=O)/C(=C/c2ccc(Br)cc2)C1	0.694 µM	1.87	1.02 µM	3.22	0.766 µM	2.27	0.885	2.7	1.13	4.38	1.4 µM	2.8 µM	0.588 µM	1.56 µM	1.93 µM	4 µM	1.53	3.13	1.73 µM	5.98 µM
Cn1cc(C2=C(c3cn(CCCN)c4ccccc34)C(=O)NC2=O)c2ccccc21	5.53 µM	19.7	6.71 µM	18.7	8.95 µM	> 19.7	4.38	8.6	5.87	> 18	4.12 µM	9.13 µM	5.86 µM	16.2 µM	3.04 µM	7.07 µM	4.7	9.3	5.58 µM	> 25 µM
Cc1nc2sc3c(N)ncnc3c2c(C)c1C	> 25 µM	> 25	> 25 µM	> 25	> 25 µM	> 25	> 25	> 25	> 25	> 25	> 25 µM	> 25 µM	> 25 µM	> 25 µM	> 25 µM	> 25 µM	> 25	> 25	> 25 µM	> 25 µM
O=C1Cc2cc(CCn3cncn3)c(Cl)cc2N1	> 100 µM	> 100	> 100 µM	> 100	> 100 µM	> 100	3.98	> 100	> 100	> 100	5.29 µM	> 100 µM	> 100 µM	> 100 µM	12.4 µM	> 100 µM	21	> 100	36.5 µM	> 100 µM
Oc1[nH]c2ccccc2c1/C=c1/ccc2c(c1)N=C(c1ccc(C(F)(F)F)cc1)N=2	3.24 µM	17.4	4.11 µM	16	3.01 µM	13.3	2.05	9.04	14.5	30.5	1.97 µM	13.5 µM	0.74 µM	3.89 µM	5.08 µM	15.3 µM	3.11	16.2	12.1 µM	25 µM
COc1ccc2c(O)c(/C=C3\N=Nc4ncccc43)oc2c1C[C@@H]1CCNC[C@H]1F	0.51 µM	2.83	0.809 µM	4.19	1.79 µM	8.11	0.557	2.2	0.256	3.55	0.128 µM	1.35 µM	0.485 µM	2.74 µM	1.93 µM	4.04 µM	2.22	7.25	2.33 µM	7.71 µM
COc1cc([N+](=O)[O-])c(S(=O)(=O)O)cc1-n1nc(C(=O)Nc2ccccc2)n[n+]1-c1cc(S(=O)(=O)[O-])c([N+](=O)[O-])cc1OC	–	> 100	–	> 100	–	> 100	–	> 100	–	> 100	–	> 100 µM	–	> 100 µM	–	> 100 µM	–	> 100	–	> 100 µM
CCOc1ccc(C(C[N+](=O)[O-])Sc2ccccc2N)cc1 (stereo not drawn)	11.1 µM	23.1	4.17 µM	15	3.33 µM	13.2	6.6	19.5	3.96	16.2	11.8 µM	24.9 µM	2.92 µM	12 µM	16.1 µM	31.2 µM	4.03	14.8	14.2 µM	27.2 µM
COc1ccccc1/C=C\C(=O)C1COCN1 (stereo not drawn)	–	26.3	–	35.6	–	64.6	–	> 100	–	39.7	–	36.1 µM	–	34.2 µM	–	56.7 µM	–	36.6	–	30.1 µM
